Marks after values point to notes of the source that are not given here.
Tests used:
[1] = Solubility in co-solvents; format: physicochemical; settings: compared with other co-solvents
sebaceous glands = assay: Effect of topically administered LCF369 on the sebaceous glands of NMRI mice (histomorphometry); format: in vivo, female Crl:NMRI mice; settings: for atrophogenic effect (recovery): 1% LCF369 7-day treatment
Protocol: LCF369 is prepared either in a solution of ethanol/propylene glycol (3/7, v/v) or in topical formulations at 1.0, 0.5 or 0.1% for testing in female Crl:NMRI mice. In general, shaved application sites of approximately 2.5 cm^2 on the back of mice are treated twice daily (once on weekends or at study termination) with 50 μl of the LCF369 preparations. To prevent the animals from potential oral uptake of the epicutaneously applied compounds, they are fitted with ruffs and housed individually. After the last application, the animals are euthanised; the treated sites dissected and prepared for histological sections. Hematoxilin/eosin (HE)-stained 3 μm-thick sections are prepared from formalin-fixed, paraffin-embedded tissue. From each animal, one HE-stained section per site is histomorphometrically examined. The entire sections of approximately 10 mm length are evaluated microscopically (200×) for sebaceous glands. The mean size and mean number (per mm^2 dermis) of sectioned alveolar units of the sebaceous glands are determined in a coded fashion with an image analyzer (Axiovision, Zeiss). For statistical analysis, morphometric data are analyzed with a T-test or Mann-Whitney rank sum test. Frozen tissue sections (5 μm) are used for oil red O (lipid) staining.
Groups of 5 mice are treated with 50 μl of 1% or 0.1% LCF369 twice daily (except on weekends, when the animals are treated once daily and on study termination) for 8 days (i.e. 14 applications in total). Four control animals are treated similarly with the vehicle alone. In life, the animals are observed for clinical signs and macroscopic changes of the application sites. One day after the last application, an evaluation is performed. In animals treated with 1.0% LCF369, untreated skin samples distant from the treated sites are also collected in order to assess systemic activity due to percutaneous absorption of LCF369.
Groups of 4 mice are treated with 1.0% LCF369 twice daily for 2, 4, 6 and 8 days (i.e. up to 16 applications). Control groups remain untreated or are treated with the vehicle alone twice daily for 8 days.
LCF369 is tested at 1.0%, 0.5% and 0.1%, groups of 6 mice are treated twice daily for 7 consecutive days. Evaluation is performed on the day following the 14th application.
A 7-day b.i.d. (twice daily) treatment schedule (except on week ends when the animals were treated once daily) with 1.0% LCF369 is applied to groups of 7 mice which are evaluated on days 8 (one day after the 14th application), 24 and 41. For comparison, skin sections from animals treated with vehicle are examined on day 8 and skin samples from untreated animals of the same delivery were examined in parallel on days 8 and 41.
Three different formulations containing 0.5% LCF369 are tested: i) emulsion gel with the penetration enhancer SEPA-9™ (batch 92.66.01-ra), ii) emulsion gel without a penetration enhancer (batch 9450-05-Ra), and iii) a formulation containing particulate compound (“follicular targeting formulation”). They are evaluated after 9 or 13 applications.

[2] = 0.1% LCF369 topical, 8 days (14 applications), treated sites (locally), day 9, mean (SD), 5 animals
[3] = 0.5% LCF369 emulsion gel containing SEPA-9, 9 applications, mean (SD), 3 animals
[4] = 0.5% LCF369 emulsion gel containing SEPA-9, 13 applications, mean (SD), 3 animals
[5] = 0.5% LCF369 twice daily 7 days, vs vehicle-treated controls
[6] = 1.0% LCF369 topical, 8 days (14 applications), treated sites (locally), day 9, mean (SD), 5 animals
[7] = 1.0% LCF369 topical, 8 days, sites distant from the treated sites (distantly), day 9, mean (SD), 5 animals
[8] = 1% LCF369 twice daily 7 days, vs vehicle-treated controls
[9] = 1.0% LCF369 twice daily for 8 days as printed, vs vehicle, time point of this value not stated
[10] = 1.0% LCF369 twice daily, 2 days of treatment, one day after last application, 4 animals
[11] = 1.0% LCF369 twice daily, 4 days of treatment
[12] = 1.0% LCF369 twice daily, 6 days of treatment
[13] = 1.0% LCF369 twice daily, 8 days of treatment
[14] = 1.0% LCF369 twice daily, after 4 days, vs vehicle
[15] = 1.0% LCF369 twice daily, after 6 days, vs vehicle
[16] = 1.0% LCF369 twice daily, after 8 days, vs vehicle
[17] = LCF 1%, 7-day b.i.d. treatment, evaluation day 8 (one day after last application), 7 animals
[18] = LCF 1%, 7-day treatment, evaluation day 24 (17 days after last application)
[19] = LCF 1%, 7-day treatment, evaluation day 41 (34 days after last application)
[20] = LCF369 0.1% (w/v) twice daily for 7 days
[21] = LCF369 0.5% (w/v) twice daily for 7 days
[22] = LCF369 1.0% (w/v) twice daily for 7 days, one day after last application, 6 animals
[23] = LCF369-treated vs vehicle-treated skin
[24] = one day after the 7 days-treatment period with 1% LCF369

## O=C(NCCC1CC1)c1ccc(N2CCN(C(=O)c3cc(F)ccc3C(F)(F)F)CC2)nn1 [LCF369, 6-[4-(5-Fluoro-2-trifluoromethylbenzoyl)piperazin-1-yl]pyridazine-3-carboxylic acid (2-cyclopropylethyl)amide]
[1]
  solubility in benzyl alcohol: surprisingly good solubility
Sebaceous glands; 0.1% LCF369, 8 days
  atrophogenic effect: little or no atrophogenic effects
Sebaceous glands; [2]
  Number of sebaceous glandular units: 34.3 (4.1) per mm^2 dermis
  Size of sebaceous glandular units: 1090 (200) μm^2
Sebaceous glands; [3]
  Number of sebaceous glandular units: 10.6 (5.89)*
  Size (μm^2) of sebaceous glandular units: 745.8 (339.3)*** μm^2
Sebaceous glands; [4]
  Number of sebaceous glandular units: 10.1 (3.48)*
  Size (μm^2) of sebaceous glandular units: 946.1 (134.0)*** μm^2
Sebaceous glands; 0.5% LCF369 formulation containing SEPA-9 vs placebo-treated (vehicle-treated) samples
  hyper/parakeratosis and acanthosis in skin sections: hyper/parakeratosis and acanthosis is more pronounced
Sebaceous glands; 0.5% LCF369 formulation containing penetration enhancer SEPA-9, 9 and 13 applications
  effect on sebaceous glands: significant atrophy of sebaceous glands
Sebaceous glands; [5]
  reduction of mean size of sebaceous glands: 48%
  reduction of numbers of sebaceous glands per mm^2 dermis: 38%
Sebaceous glands; day 24
  atrophogenic effect (recovery): substantially reduced
Sebaceous glands; day 41
  atrophogenic effect (recovery): almost completely absent
Sebaceous glands; 1.0% LCF369, 8 days, distant sites
  differences in numbers and sizes of sebaceous glands at sites distant from the LCF369 treatments: no significant differences
Sebaceous glands; 1.0% LCF369, 8 days, vs vehicle, p<0.001
  reduction of sebaceous glands in numbers, factor: about 2.5
Sebaceous glands; 1.0% LCF369, 8 days, vs vehicle, p<0.01
  reduction of sebaceous glands in sizes: about 1.9 fold
Sebaceous glands; [6]
  Number of sebaceous glandular units: 13.7 (8.2) *** per mm^2 dermis
  Size of sebaceous glandular units: 571 (200) ** μm^2
Sebaceous glands; [7]
  Number of sebaceous glandular units: 28.4 (6.0) per mm^2 dermis
  Size of sebaceous glandular units: 1090 (250) μm^2
Sebaceous glands; [8]
  reduction of numbers of sebaceous glands: 57%
  reduction of size of sebaceous glands: 60%
Sebaceous glands; 1.0% LCF369 twice daily (8 applications)
  treatment period after which the effect is statistically significant: 4 days
Sebaceous glands; [9]
  progressive decrease in the numbers of sebaceous glands: 12%
  progressive decrease in the size of sebaceous glands: 19%
Sebaceous glands; [10]
  Number of sebaceous glandular units: 24.8 per mm^2 dermis
  Size (μm^2) of sebaceous glandular units: 1095 μm^2
Sebaceous glands; [11]
  Number of sebaceous glandular units: 18.0 per mm^2 dermis
  Size (μm^2) of sebaceous glandular units: 875 μm^2
Sebaceous glands; [12]
  Number of sebaceous glandular units: 12.6 per mm^2 dermis
  Size (μm^2) of sebaceous glandular units: 613 μm^2
Sebaceous glands; [13]
  Number of sebaceous glandular units: 7.0 per mm^2 dermis
  Size (μm^2) of sebaceous glandular units: 374 μm^2
Sebaceous glands; [14]
  decrease of mean size of sebaceous glands: 35%
  reduction of numbers of sebaceous glands: 35%
Sebaceous glands; [15]
  decrease of mean size of sebaceous glands: 35%
  reduction of numbers of sebaceous glands: 54%
Sebaceous glands; [16]
  decrease of mean size of sebaceous glands: 72%
  reduction of numbers of sebaceous glands: 75%
Sebaceous glands; [17]
  Number of sebaceous glandular units: 9.28
  Size (μm^2) of sebaceous glandular units: 708 μm^2
Sebaceous glands; [18]
  Number of sebaceous glandular units: 17.4
  Size (μm^2) of sebaceous glandular units: 1154 μm^2
Sebaceous glands; [19]
  Number of sebaceous glandular units: 21
  Size (μm^2) of sebaceous glandular units: 1456 μm^2
Sebaceous glands; [20]
  Number of sebaceous glandular units: 23.8 per mm^2 dermis
  Size (μm^2) of sebaceous glandular units: 1396 μm^2
Sebaceous glands; [21]
  Number of sebaceous glandular units: 14.5 per mm^2 dermis
  Size (μm^2) of sebaceous glandular units: 870 μm^2
Sebaceous glands; [22]
  Number of sebaceous glandular units: 10.1 per mm^2 dermis
  Size (μm^2) of sebaceous glandular units: 675 μm^2
Sebaceous glands; [23]
  histochemical (HE) staining of skin, sebaceous glands (FIG. 2B): fewer and smaller (atrophic) sebaceous glands
  oil red O staining, lipids associated with hair shafts (FIG. 3B): significantly reduced lipids associated with hair shafts
Sebaceous glands; applied twice daily (50 μL each time) for 7 days
  minimal statistically significant effective concentration: 0.5%
Sebaceous glands; [24]
  reduction of mean size of sebaceous glands: 50%
  reduction of numbers of sebaceous glands: 57%
Sebaceous glands; topical application
  concentration at which efficacy is seen: ≥ 0.4%
  treatment time at which efficacy is seen: ≥ 4 days
